The experiment has as its system HCV genotype 1b strain Con1 replicon (ET replicon line, Huh7 cells). The experiment can be described thus: HCV ET replicon luciferase assay. In kind it is cell-based. The settings on record: Hepatitis C virus, Huh-7; Huh7 cells stably transfected with HCV genotype 1b Con1 replicon; firefly luciferase readout; 72 hours incubation. The protocol: Compounds of the current invention are believed useful in the treatment and/or prophylaxis of conditions and diseases associated with HcV infection. Activity mediated through HCV was determined using an ET replicon line.
The Materials used include a Medium comprised of DMEM (IX liquid, high glucose); Invitrogen cat #11965-092; 100× Penicillin/Streptomycin solution (10,000 Units/mL); Invitrogen cat #15140-122; 100× Non-essential amino acid solution (10 mM); Invitrogen cat #11140-050; Fetal bovine serum; JRH Biosciences cat #12107-500M; Geneticin (50 mg/mL); Invitrogen cat #10131-035
The Luciferase assay reagents include Steady-Glo Luciferase assay system, cat # E2550 (Promega)
The ET replicon line (see Lohmann et al. (1999), Replication of subgenomic hepatitis C virus RNAs in a hepatoma cell line. Science 285: 110-113; Krieger et al. (2001), Enhancement of hepatitis C virus RNA replication by cell culture-adaptive mutations. J. Virol. 75: 4614-4624; and Vrolijk et al. (2003), A replicon-based bioassay for the measurement of interferons in patients with chronic hepatitis C. J. Virol. Meth. 110: 201-209, each herein incorporated by reference with regard to the ET replicon line), includes Huh7 cells stably transfected with HCV genotype 1b strain Con1 replicon. This replicon expresses the firefly luciferase, has the coding region for ubiquitin inserted upstream of the neomycin gene, and carries three cell culture-adaptive mutations that enhance RNA replication cooperatively (E1202G, T1280I, and S2197P). The ET cell line was obtained under licence from: ReBLikon GmbH, Nach dem alten Schloss 22, 55239 Gau-Odernheim, Germany. […]
Cells are grown to approximately 80% confluency and trypsinised as described above. Cells are counted in a Levy Hemocytometer and diluted to 20,000 cells/ml in DMEM containing 10% FBS, 1× penicillin/streptomycin, 1×NEAAs. […]
245 μL cell suspension is added to the first 11 columns of the daughter plates prepared as above using a Multidrop dispenser (Titertek). […] The twelfth column of each plate is used to generate background readings for the assay. […]

Each structure is given as a SMILES string. Structures can show the parent of a compound that is named as a salt.

In turn, `C[C@@H](N[C@@H]1CCCc2c1[nH]c1ccc(Br)cc21)c1ccccc1` [Example 31, (1R)-6-bromo-N-[(1R)-1-phenylethyl]-2,3,4,9-tetrahydro-1H-carbazol-1-amine Hydrochloride Salt] returned an IC50 of 13 nM.
With `C[C@H](N[C@@H]1CCCc2c1[nH]c1ccc(Br)cc21)c1ccccc1` [Example 36, (1R)-6-Bromo-N-[(1S)-1-phenylethyl]-2,3,4,9-tetrahydro-1H-carbazol-1-amine Hydrochloride Salt] the figure was 8 nM; with `Brc1ccc2[nH]c3c(c2c1)CCC[C@H]3NC1Cc2ccccc2C1` [Example 27, (1R)-6-Bromo-N-(2,3-dihydro-1H-inden-2-yl)-2,3,4,9-tetrahydro-1H-carbazol-1-amine hydrochloride salt], 54 nM.

Values taken from patent publication US20090170923A1, “HCV INHIBITORS” (priority 2004, published 2009).
